Data: ChEMBL document CHEMBL1132089, “Probing the role of interfacial residues in a dimerization inhibitor of HIV-1 protease” (Bioorg Med Chem Lett, 1999)
Where a SMILES comes first, the peptide text is derived from it. Bridges are numbered along the chain shown (N, C = ends). Roman numbers before positions name the chains, in order. The star is where a group is joined. C16 diacid = O=C(O)CCCCCCCCCCCCCCC(=O)*

What follows are molecules tested against Human immunodeficiency virus type 1 protease (Human immunodeficiency virus 1) (UniProt Q72874) (assay: Percent inhibition of HIV-1 protease at a concentration level of 25 nM relative to compound I was determined by UV absorbance).
Molecule `CC(C)C[C@H](NC(=O)[C@@H](NC(=O)[C@H](CO)NC(=O)CCCCCCCCCCCCCCC(=O)N1CCC[C@H]1C(=O)N[C@@H](CCC(N)=O)C(=O)N[C@@H](C)C(=O)N[C@H](C(=O)N[C@@H](CC(C)C)C(=O)N[C@@H](Cc1c[nH]c2ccccc12)C(=O)O)[C@@H](C)O)[C@H](C)O)C(=O)N[C@@H](CC(N)=O)C(=O)N[C@@H](Cc1ccccc1)C(=O)O` has an inhibition of 2.7%. Work on `CC[C@H](C)[C@H](NC(=O)[C@H](CCC(N)=O)NC(=O)[C@@H]1CCCN1C(=O)CCCCCCCCCCCCCCC(=O)N[C@@H](C)C(=O)N[C@H](C(=O)N[C@@H](CC(C)C)C(=O)N[C@@H](CC(N)=O)C(=O)N[C@@H](Cc1ccccc1)C(=O)O)[C@H](C)O)C(=O)N[C@H](C(=O)N[C@@H](CC(C)C)C(=O)N[C@@H](Cc1c[nH]c2ccccc12)C(=O)O)[C@@H](C)O` yielded an inhibition of 1.1%. `CC[C@H](C)[C@H](NC(=O)[C@H](CCC(N)=O)NC(=O)[C@@H]1CCCN1C(=O)CCCCCCCCCCCCCCC(=O)N[C@@H](CO)C(=O)N[C@H](C(=O)N[C@@H](CC(C)C)C(=O)N[C@@H](CC(N)=O)C(=O)N[C@@H](Cc1ccccc1)C(=O)O)[C@@H](C)O)C(=O)N[C@H](C(=O)N[C@@H](CC(C)C)C(=O)N[C@@H](C)C(=O)O)[C@@H](C)O` (I: PQITLA-OH / II: STLNF-OH; linker I:N-II:N via C16 diacid) gave an inhibition of 26%. Work on `CC[C@H](C)[C@H](NC(=O)[C@H](CCC(N)=O)NC(=O)[C@@H]1CCCN1C(=O)CCCCCCCCCCCCCCC(=O)N[C@@H](CO)C(=O)N[C@H](C(=O)N[C@@H](CC(C)C)C(=O)N[C@@H](CC(N)=O)C(=O)N[C@@H](Cc1ccccc1)C(=O)O)[C@H](C)O)C(=O)N[C@H](C(=O)N[C@@H](C)C(=O)N[C@@H](Cc1c[nH]c2ccccc12)C(=O)O)[C@@H](C)O` yielded an inhibition of 1.6%. `CC[C@H](C)[C@H](NC(=O)[C@H](CCC(N)=O)NC(=O)[C@@H]1CCCN1C(=O)CCCCCCCCCCCCCCC(=O)N[C@@H](CO)C(=O)N[C@H](C(=O)N[C@@H](C)C(=O)N[C@@H](CC(N)=O)C(=O)N[C@@H](Cc1ccccc1)C(=O)O)[C@H](C)O)C(=O)N[C@H](C(=O)N[C@@H](CC(C)C)C(=O)N[C@@H](Cc1c[nH]c2ccccc12)C(=O)O)[C@@H](C)O` showed an inhibition of 4.5%. For `CC[C@H](C)[C@H](NC(=O)[C@H](CCC(N)=O)NC(=O)[C@@H]1CCCN1C(=O)CCCCCCCCCCCCCCC(=O)N[C@@H](CO)C(=O)N[C@H](C(=O)N[C@@H](CC(C)C)C(=O)N[C@@H](C)C(=O)N[C@@H](Cc1ccccc1)C(=O)O)[C@H](C)O)C(=O)N[C@H](C(=O)N[C@@H](CC(C)C)C(=O)N[C@@H](Cc1c[nH]c2ccccc12)C(=O)O)[C@@H](C)O`, the inhibition was 1.9%. `CC[C@H](C)[C@H](NC(=O)[C@H](CCC(N)=O)NC(=O)[C@@H]1CCCN1C(=O)CCCCCCCCCCCCCCC(=O)N[C@@H](CO)C(=O)N[C@H](C(=O)N[C@@H](CC(C)C)C(=O)N[C@@H](CC(N)=O)C(=O)N[C@@H](C)C(=O)O)[C@H](C)O)C(=O)N[C@H](C(=O)N[C@@H](CC(C)C)C(=O)N[C@@H](Cc1c[nH]c2ccccc12)C(=O)O)[C@@H](C)O` gave an inhibition of 3.5%. In the case of `CC[C@H](C)[C@H](NC(=O)[C@H](CCC(N)=O)NC(=O)[C@@H]1CCCN1C(=O)CCCCCCCCCCCCCCC(=O)N[C@@H](CO)C(=O)N[C@@H](C)C(=O)N[C@@H](CC(C)C)C(=O)N[C@@H](CC(N)=O)C(=O)N[C@@H](Cc1ccccc1)C(=O)O)C(=O)N[C@H](C(=O)N[C@@H](CC(C)C)C(=O)N[C@@H](Cc1c[nH]c2ccccc12)C(=O)O)[C@@H](C)O` (I: PQITLW-OH / II: SALNF-OH; linker I:N-II:N via C16 diacid), the inhibition is reported as 3.3%. Molecule `CC[C@H](C)[C@H](NC(=O)[C@H](C)NC(=O)[C@@H]1CCCN1C(=O)CCCCCCCCCCCCCCC(=O)N[C@@H](CO)C(=O)N[C@H](C(=O)N[C@@H](CC(C)C)C(=O)N[C@@H](CC(N)=O)C(=O)N[C@@H](Cc1ccccc1)C(=O)O)[C@@H](C)O)C(=O)N[C@H](C(=O)N[C@@H](CC(C)C)C(=O)N[C@@H](Cc1c[nH]c2ccccc12)C(=O)O)[C@@H](C)O` (I: PAITLW-OH / II: STLNF-OH; linker I:N-II:N via C16 diacid) has an inhibition of 0.8%. Molecule `CC[C@H](C)[C@H](NC(=O)[C@H](CCC(N)=O)NC(=O)[C@@H]1CCCN1C(=O)CCCCCCCCCCCCCCC(=O)N[C@@H](CO)C(=O)N[C@H](C(=O)N[C@@H](CC(C)C)C(=O)N[C@@H](CC(N)=O)C(=O)N[C@@H](Cc1ccccc1)C(=O)O)[C@@H](C)O)C(=O)N[C@@H](C)C(=O)N[C@@H](CC(C)C)C(=O)N[C@@H](Cc1c[nH]c2ccccc12)C(=O)O` (I: PQIALW-OH / II: STLNF-OH; linker I:N-II:N via C16 diacid) has an inhibition of 3.3%.
